# Assay results: the kinase profiling compilation of Christmann-Franck et al. (2016)
# “And” between values parts separate entries of the source, which are not always exact repeats. Equal entries are not always repeated.
# Tests used:
# Assay in all cases: radiometric filter-binding kinase assay, Kinase HotSpot
# Conditions in all cases: compound 0.5 µM; ATP 10 µM
# ACVR1 (human) = ACVR1 (human) (UniProt Q04771)
# ADRBK1 (human) = ADRBK1 (human) (UniProt P25098)
# BTK (human) = BTK (human) (UniProt Q06187)
# CAMKK1 (human) = CAMKK1 (human) (UniProt Q8N5S9)
# CDC42BPB (human) = CDC42BPB (human) (UniProt Q9Y5S2)
# CDK4 CCND3 (human) = CDK4 CCND3 (human) (UniProt P30281+P11802)
# CLK1 (human) = CLK1 (human) (UniProt P49759)
# CSNK1G1 (human) = CSNK1G1 (human) (UniProt Q9HCP0)
# CSNK1G1 (human), sequence (Q9HCP0 whole entry, looked up): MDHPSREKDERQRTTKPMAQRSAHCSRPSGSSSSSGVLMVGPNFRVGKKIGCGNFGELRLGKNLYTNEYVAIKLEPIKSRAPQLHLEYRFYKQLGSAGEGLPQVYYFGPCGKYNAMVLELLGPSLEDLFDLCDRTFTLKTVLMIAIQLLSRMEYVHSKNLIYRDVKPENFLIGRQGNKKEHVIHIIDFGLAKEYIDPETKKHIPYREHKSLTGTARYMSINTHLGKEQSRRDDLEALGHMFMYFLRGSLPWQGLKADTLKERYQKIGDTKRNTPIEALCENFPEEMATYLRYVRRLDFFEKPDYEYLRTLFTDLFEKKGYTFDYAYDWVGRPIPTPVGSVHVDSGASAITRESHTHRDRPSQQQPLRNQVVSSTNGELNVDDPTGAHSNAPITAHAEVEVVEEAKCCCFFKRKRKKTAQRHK
# DDR2 (human) = DDR2 (human) (UniProt Q16832)
# DMPK (human) = DMPK (human) (UniProt Q09013)
# DYRK2 (human) = DYRK2 (human) (UniProt Q92630)
# ERBB4 (human) = ERBB4 (human) (UniProt Q15303)
# FGFR2 (human) = FGFR2 (human) (UniProt P21802)
# GRK4 (human) = GRK4 (human) (UniProt P32298)
# GRK4 (human), sequence (P32298 whole entry, looked up): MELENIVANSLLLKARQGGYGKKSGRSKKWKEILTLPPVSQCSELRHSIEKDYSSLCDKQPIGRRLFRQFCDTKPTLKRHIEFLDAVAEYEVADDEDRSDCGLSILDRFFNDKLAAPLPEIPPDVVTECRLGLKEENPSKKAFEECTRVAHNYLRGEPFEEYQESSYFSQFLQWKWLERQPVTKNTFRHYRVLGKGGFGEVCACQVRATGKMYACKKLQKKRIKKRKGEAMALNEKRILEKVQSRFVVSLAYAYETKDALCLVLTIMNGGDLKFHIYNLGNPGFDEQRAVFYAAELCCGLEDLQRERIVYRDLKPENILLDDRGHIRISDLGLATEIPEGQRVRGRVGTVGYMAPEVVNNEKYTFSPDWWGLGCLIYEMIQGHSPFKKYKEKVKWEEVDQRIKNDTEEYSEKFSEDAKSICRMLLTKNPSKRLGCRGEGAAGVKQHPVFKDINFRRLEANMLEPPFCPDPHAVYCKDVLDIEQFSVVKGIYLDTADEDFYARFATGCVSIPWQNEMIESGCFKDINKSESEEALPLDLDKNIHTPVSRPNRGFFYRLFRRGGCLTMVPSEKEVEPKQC
# HIPK1 (human) = HIPK1 (human) (UniProt Q86Z02)
# ITK (human) = ITK (human) (UniProt Q08881)
# ITK (human), sequence (Q08881 whole entry, looked up): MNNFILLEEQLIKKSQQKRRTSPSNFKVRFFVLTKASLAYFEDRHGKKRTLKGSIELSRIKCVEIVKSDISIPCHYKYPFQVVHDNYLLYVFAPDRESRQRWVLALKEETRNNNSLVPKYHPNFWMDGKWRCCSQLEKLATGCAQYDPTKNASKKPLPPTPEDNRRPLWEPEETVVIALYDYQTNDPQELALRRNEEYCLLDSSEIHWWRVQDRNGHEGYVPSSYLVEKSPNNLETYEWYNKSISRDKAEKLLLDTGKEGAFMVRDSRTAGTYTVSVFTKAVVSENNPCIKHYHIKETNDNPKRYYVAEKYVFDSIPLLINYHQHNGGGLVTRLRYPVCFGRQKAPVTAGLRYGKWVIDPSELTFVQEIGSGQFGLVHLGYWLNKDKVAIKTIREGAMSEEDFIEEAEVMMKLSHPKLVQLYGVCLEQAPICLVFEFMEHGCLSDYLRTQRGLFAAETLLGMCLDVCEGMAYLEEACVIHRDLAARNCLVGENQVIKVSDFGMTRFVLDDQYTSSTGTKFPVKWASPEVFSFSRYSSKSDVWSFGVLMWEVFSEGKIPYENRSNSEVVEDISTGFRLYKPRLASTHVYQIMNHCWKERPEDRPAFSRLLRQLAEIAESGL
# LIMK1 (human) = LIMK1 (human) (UniProt P53667)
# LYN (human) = LYN (human) (UniProt P07948)
# MAP3K7 TAB1 (human) = MAP3K7 TAB1 (human) (UniProt O43318+Q15750)
# MAPK10 (human) = MAPK10 (human) (UniProt P53779)
# MAPK9 (human) = MAPK9 (human) (UniProt P45984)
# MAPK9 (human), sequence (P45984 whole entry, looked up): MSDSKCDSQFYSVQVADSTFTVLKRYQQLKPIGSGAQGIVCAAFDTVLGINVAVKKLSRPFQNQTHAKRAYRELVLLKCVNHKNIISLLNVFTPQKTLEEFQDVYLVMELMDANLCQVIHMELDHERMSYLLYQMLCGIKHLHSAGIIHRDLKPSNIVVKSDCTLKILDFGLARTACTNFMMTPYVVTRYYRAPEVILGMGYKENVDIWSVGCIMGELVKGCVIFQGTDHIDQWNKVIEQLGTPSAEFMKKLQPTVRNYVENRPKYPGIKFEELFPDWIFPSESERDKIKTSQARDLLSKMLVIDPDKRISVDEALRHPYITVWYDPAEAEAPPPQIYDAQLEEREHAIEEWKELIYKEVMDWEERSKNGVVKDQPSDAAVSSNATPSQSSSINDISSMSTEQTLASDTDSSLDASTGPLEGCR
# MYLK2 (human) = MYLK2 (human) (UniProt Q9H1R3)
# NEK4 (human) = NEK4 (human) (UniProt P51957)
# NEK6 (human) = NEK6 (human) (UniProt Q9HC98)
# NEK6 (human), sequence (Q9HC98 whole entry, looked up): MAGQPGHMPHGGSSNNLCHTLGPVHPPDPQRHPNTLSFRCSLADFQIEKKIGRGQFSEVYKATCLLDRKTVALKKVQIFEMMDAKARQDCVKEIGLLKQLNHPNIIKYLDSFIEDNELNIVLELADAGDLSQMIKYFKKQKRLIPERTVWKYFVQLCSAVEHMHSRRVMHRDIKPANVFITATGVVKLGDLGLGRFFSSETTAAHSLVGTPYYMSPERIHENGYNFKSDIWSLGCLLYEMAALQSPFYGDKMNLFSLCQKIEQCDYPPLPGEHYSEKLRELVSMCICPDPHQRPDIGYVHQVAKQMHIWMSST
# NEK9 (human) = NEK9 (human) (UniProt Q8TD19)
# NUAK2 (human) = NUAK2 (human) (UniProt Q9H093)
# NUAK2 (human), sequence (Q9H093 whole entry, looked up): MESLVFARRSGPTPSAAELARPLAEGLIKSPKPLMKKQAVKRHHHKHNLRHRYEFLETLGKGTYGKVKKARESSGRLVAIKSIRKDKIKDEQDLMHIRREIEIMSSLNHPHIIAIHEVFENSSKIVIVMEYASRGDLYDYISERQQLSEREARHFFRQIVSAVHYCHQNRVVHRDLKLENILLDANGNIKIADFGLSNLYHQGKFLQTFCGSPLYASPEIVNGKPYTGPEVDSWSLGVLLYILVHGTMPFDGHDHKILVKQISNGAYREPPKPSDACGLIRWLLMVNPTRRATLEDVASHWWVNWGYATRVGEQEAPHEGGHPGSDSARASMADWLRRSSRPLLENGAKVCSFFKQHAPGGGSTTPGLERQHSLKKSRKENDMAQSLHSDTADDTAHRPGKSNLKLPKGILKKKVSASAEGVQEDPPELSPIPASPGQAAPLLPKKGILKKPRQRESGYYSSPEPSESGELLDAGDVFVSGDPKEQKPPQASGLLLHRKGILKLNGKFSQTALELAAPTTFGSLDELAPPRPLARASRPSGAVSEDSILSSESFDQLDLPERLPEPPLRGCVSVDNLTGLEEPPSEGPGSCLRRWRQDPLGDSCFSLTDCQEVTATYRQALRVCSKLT
# PBK (human) = PBK (human) (UniProt Q96KB5)
# PHKG2 (human) = PHKG2 (human) (UniProt P15735)
# PLK1 (human) = PLK1 (human) (UniProt P53350)
# PLK1 (human), sequence (P53350 whole entry, looked up): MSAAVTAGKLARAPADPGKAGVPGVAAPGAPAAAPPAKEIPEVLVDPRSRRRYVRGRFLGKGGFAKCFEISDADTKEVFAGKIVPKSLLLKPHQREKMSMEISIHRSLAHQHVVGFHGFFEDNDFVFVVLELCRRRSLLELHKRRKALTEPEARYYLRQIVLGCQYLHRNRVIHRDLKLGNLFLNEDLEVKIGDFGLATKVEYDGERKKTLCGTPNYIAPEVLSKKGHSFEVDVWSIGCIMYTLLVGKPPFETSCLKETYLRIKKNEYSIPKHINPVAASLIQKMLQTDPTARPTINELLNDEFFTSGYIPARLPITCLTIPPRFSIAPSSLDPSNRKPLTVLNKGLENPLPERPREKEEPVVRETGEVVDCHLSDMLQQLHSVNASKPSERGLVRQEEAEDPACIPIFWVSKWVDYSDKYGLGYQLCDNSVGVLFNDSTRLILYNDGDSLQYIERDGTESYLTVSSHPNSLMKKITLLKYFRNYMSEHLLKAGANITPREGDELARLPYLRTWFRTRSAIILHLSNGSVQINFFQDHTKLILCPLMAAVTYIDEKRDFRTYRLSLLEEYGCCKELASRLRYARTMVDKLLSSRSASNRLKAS
# PLK3 (human) = PLK3 (human) (UniProt Q9H4B4)
# PRKCB2 (human) = PRKCB2 (human) (UniProt P05771)
# PRKCB2 (human), sequence (P05771 whole entry, looked up): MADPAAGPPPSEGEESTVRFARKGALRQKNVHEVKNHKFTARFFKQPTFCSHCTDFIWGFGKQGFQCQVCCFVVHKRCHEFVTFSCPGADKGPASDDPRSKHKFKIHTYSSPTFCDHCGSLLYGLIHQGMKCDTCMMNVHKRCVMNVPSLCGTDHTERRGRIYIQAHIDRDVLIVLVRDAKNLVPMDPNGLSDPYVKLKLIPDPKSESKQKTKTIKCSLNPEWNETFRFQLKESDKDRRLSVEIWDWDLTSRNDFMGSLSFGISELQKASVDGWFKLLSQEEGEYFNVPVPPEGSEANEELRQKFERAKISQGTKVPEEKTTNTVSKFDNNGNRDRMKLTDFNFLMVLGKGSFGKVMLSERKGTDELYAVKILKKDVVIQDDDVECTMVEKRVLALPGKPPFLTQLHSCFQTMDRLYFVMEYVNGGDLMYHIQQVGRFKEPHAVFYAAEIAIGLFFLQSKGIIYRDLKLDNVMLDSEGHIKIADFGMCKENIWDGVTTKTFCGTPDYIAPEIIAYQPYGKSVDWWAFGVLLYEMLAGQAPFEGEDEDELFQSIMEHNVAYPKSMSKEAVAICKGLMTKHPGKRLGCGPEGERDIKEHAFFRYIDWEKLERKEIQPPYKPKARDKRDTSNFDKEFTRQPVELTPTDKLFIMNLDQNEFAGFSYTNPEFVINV
# PRKCI (human) = PRKCI (human) (UniProt P41743)
# PRKD3 (human) = PRKD3 (human) (UniProt O94806)
# PRKG2 (human) = PRKG2 (human) (UniProt Q13237)
# PTK2 (human) = PTK2 (human) (UniProt Q05397)
# RPS6KA1 KD1 KD2 (human) = RPS6KA1 KD1 KD2 (human) (UniProt Q15418)
# RPS6KA3 KD1 KD2 (human) = RPS6KA3 KD1 KD2 (human) (UniProt P51812)
# RPS6KA3 KD1 KD2 (human), sequence (P51812 whole entry, looked up): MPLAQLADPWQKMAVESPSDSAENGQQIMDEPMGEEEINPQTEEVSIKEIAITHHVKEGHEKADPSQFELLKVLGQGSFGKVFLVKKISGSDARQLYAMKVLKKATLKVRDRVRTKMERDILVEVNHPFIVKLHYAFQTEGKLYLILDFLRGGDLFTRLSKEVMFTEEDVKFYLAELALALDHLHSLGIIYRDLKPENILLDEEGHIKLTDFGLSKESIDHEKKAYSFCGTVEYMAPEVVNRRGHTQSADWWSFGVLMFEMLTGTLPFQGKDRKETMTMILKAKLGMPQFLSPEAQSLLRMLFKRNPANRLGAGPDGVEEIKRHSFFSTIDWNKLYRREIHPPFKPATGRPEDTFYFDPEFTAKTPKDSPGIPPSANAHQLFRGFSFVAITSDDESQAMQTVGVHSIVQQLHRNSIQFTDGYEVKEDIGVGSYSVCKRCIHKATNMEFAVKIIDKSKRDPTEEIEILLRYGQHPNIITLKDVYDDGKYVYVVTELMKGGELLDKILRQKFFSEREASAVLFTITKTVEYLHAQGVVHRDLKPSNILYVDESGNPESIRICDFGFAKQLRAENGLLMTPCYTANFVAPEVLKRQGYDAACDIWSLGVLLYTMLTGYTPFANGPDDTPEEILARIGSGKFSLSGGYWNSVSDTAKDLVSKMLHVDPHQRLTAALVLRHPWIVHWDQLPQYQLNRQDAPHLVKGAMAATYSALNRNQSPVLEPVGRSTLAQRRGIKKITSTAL
# SGK3 (human) = SGK3 (human) (UniProt Q96BR1)
# SRMS (human) = SRMS (human) (UniProt Q9H3Y6)
# STK3 (human) = STK3 (human) (UniProt Q13188)
# SYK (human) = SYK (human) (UniProt P43405)
# TAOK2 (human) = TAOK2 (human) (UniProt Q9UL54)
structure (smiles),measurement,setting,value
Nc1ncnc2c1cnn2-c1ccccc1,residual activity,ACVR1 (human),101%
same,residual activity,ADRBK1 (human),99.4%
same,residual activity,BTK (human),98.7%
same,residual activity,CAMKK1 (human),84.8%
same,residual activity,CDC42BPB (human),96.7%
same,residual activity,CDK4 CCND3 (human),94%
same,residual activity,CLK1 (human),91.8%
same,residual activity,CSNK1G1 (human),94.8%
same,residual activity,DDR2 (human),92.3%
same,residual activity,DMPK (human),106%
same,residual activity,DYRK2 (human),95.6%
same,residual activity,ERBB4 (human),101%
same,residual activity,FGFR2 (human),100%
same,residual activity,GRK4 (human),106%
same,residual activity,HIPK1 (human),98.4%
same,residual activity,ITK (human),92.7%
same,residual activity,LIMK1 (human),89.1%
same,residual activity,LYN (human),102% and 99.7%
same,residual activity,MAP3K7 TAB1 (human),98.9%
same,residual activity,MAPK10 (human),100%
same,residual activity,MAPK9 (human),88.2%
same,residual activity,MYLK2 (human),99.9%
same,residual activity,NEK4 (human),98.7%
same,residual activity,NEK6 (human),114%
same,residual activity,NEK9 (human),110%
same,residual activity,NUAK2 (human),75.2%
same,residual activity,PBK (human),92.4%
same,residual activity,PHKG2 (human),94.1%
same,residual activity,PLK1 (human),98.9%
same,residual activity,PLK3 (human),94.6%
same,residual activity,PRKCB2 (human),96.5%
same,residual activity,PRKCI (human),97.3%
same,residual activity,PRKD3 (human),87.3%
same,residual activity,PRKG2 (human),99.2%
same,residual activity,PTK2 (human),94.9%
same,residual activity,RPS6KA1 KD1 KD2 (human),79.5%
same,residual activity,RPS6KA3 KD1 KD2 (human),95%
same,residual activity,SGK3 (human),92.3%
same,residual activity,SRMS (human),104%
same,residual activity,STK3 (human),92.3%
same,residual activity,SYK (human),96%
same,residual activity,TAOK2 (human),93%
FC(F)(F)c1ccc(/C=C/c2nc(COc3ccc(CCCCn4ccnn4)cc3)co2)cc1,residual activity,ACVR1 (human),101%
same,residual activity,ADRBK1 (human),113%
same,residual activity,BTK (human),98.2%
same,residual activity,CAMKK1 (human),96.7%
same,residual activity,CDC42BPB (human),100%
same,residual activity,CDK4 CCND3 (human),119%
same,residual activity,CLK1 (human),101%
same,residual activity,CSNK1G1 (human),100%
same,residual activity,DDR2 (human),101%
same,residual activity,DMPK (human),101%
same,residual activity,DYRK2 (human),110%
same,residual activity,ERBB4 (human),99.6%
same,residual activity,FGFR2 (human),96.7%
same,residual activity,GRK4 (human),102%
same,residual activity,HIPK1 (human),101%
same,residual activity,ITK (human),102%
same,residual activity,LIMK1 (human),99.2%
same,residual activity,LYN (human),104% and 95.8%
same,residual activity,MAP3K7 TAB1 (human),88.7%
same,residual activity,MAPK10 (human),94.6%
same,residual activity,MAPK9 (human),106%
same,residual activity,MYLK2 (human),101%
same,residual activity,NEK4 (human),90%
same,residual activity,NEK6 (human),92.6%
same,residual activity,NEK9 (human),95.5%
same,residual activity,NUAK2 (human),101%
same,residual activity,PBK (human),99.9%
same,residual activity,PHKG2 (human),93.5%
same,residual activity,PLK1 (human),98.3%
same,residual activity,PLK3 (human),107%
same,residual activity,PRKCB2 (human),93.1%
same,residual activity,PRKCI (human),92.6%
same,residual activity,PRKD3 (human),93.3%
same,residual activity,PRKG2 (human),89.9%
same,residual activity,PTK2 (human),101%
same,residual activity,RPS6KA1 KD1 KD2 (human),97.9%
same,residual activity,RPS6KA3 KD1 KD2 (human),96.8%
same,residual activity,SGK3 (human),89.2%
same,residual activity,SRMS (human),93.5%
same,residual activity,STK3 (human),95.5%
same,residual activity,SYK (human),97.4%
same,residual activity,TAOK2 (human),105%
O=C(O)c1ccc2c3c1cccc3c(=O)n1c3ccccc3nc21,residual activity,ACVR1 (human),91.1%
same,residual activity,ADRBK1 (human),99.3%
same,residual activity,BTK (human),109%
same,residual activity,CAMKK1 (human),45.8%
same,residual activity,CDC42BPB (human),109%
same,residual activity,CDK4 CCND3 (human),102%
same,residual activity,CLK1 (human),93.8%
same,residual activity,CSNK1G1 (human),99.5%
same,residual activity,DDR2 (human),96.8%
same,residual activity,DMPK (human),98.9%
same,residual activity,DYRK2 (human),50.7%
same,residual activity,ERBB4 (human),105%
same,residual activity,FGFR2 (human),100%
same,residual activity,GRK4 (human),95.5%
same,residual activity,HIPK1 (human),104%
same,residual activity,ITK (human),97.7%
same,residual activity,LIMK1 (human),92.7%
same,residual activity,LYN (human),101% and 99.4%
same,residual activity,MAP3K7 TAB1 (human),74.4%
same,residual activity,MAPK10 (human),108%
same,residual activity,MAPK9 (human),97.5%
same,residual activity,MYLK2 (human),99.6%
same,residual activity,NEK4 (human),60.4%
same,residual activity,NEK6 (human),115%
same,residual activity,NEK9 (human),94.1%
same,residual activity,NUAK2 (human),122%
same,residual activity,PBK (human),97.5%
same,residual activity,PHKG2 (human),94.7%
same,residual activity,PLK1 (human),110%
same,residual activity,PLK3 (human),93.9%
same,residual activity,PRKCB2 (human),97%
same,residual activity,PRKCI (human),94.6%
same,residual activity,PRKD3 (human),82.2%
same,residual activity,PRKG2 (human),94.8%
same,residual activity,PTK2 (human),97.5%
same,residual activity,RPS6KA1 KD1 KD2 (human),101%
same,residual activity,RPS6KA3 KD1 KD2 (human),95.5%
same,residual activity,SGK3 (human),103%
same,residual activity,SRMS (human),106%
same,residual activity,STK3 (human),97.1%
same,residual activity,SYK (human),96%
same,residual activity,TAOK2 (human),95.2%
